Source: ChEMBL document CHEMBL1201862, “PubChem BioAssay data set” (2004)
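Interpolation was linear, between the two tested concentrations surrounding the appropriate level; five concentrations were tested over 48 hours in 96-well plates. At the GI50, growth is halved.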 Activity calls are given as the source filed them. Cut-off read from the data, not from the text of the source: active = GI50 up to about 1.1 µM and inactive = higher.

Tests used:
Assay in all cases: NCI tumour cell line growth inhibition, 48 h
[1] = system: SN12C
[2] = system: TK-10
[3] = system: MOLT-4
[4] = system: NCI-H226
[5] = system: UACC-62
[6] = system: IGROV-1
[7] = system: SF-268
[8] = system: OVCAR-4
[9] = system: SK-MEL-28
[10] = system: NCI-H522
[11] = system: 786-0
[12] = system: A549
[13] = system: HCT-116
[14] = system: SR
[15] = system: EKVX
[16] = system: SNB-19
[17] = system: MDA-N
[18] = system: SF-295
[19] = system: M14
[20] = system: MDA-MB-231
[21] = system: K562
[22] = system: UACC-257
[23] = system: Hs-578T
[24] = system: NCI-H23
[25] = system: SK-OV-3
[26] = system: HCT-15
[27] = system: SK-MEL-5
[28] = system: NCI/ADR-RES
[29] = system: BT-549
[30] = system: RPMI-8226
[31] = system: HOP-62
[32] = system: HT-29
[33] = system: HCC 2998
[34] = system: MCF7
[35] = system: SNB-75
[36] = system: OVCAR-8
[37] = system: LOX IMVI
[38] = system: HOP-92
[39] = system: OVCAR-5
[40] = system: SW-620
[41] = system: RXF 393
[42] = system: CAKI-1
[43] = system: SF-539
[44] = system: A498
[45] = system: ACHN
[46] = system: NCI-H460
[47] = system: MDA-MB-435
[48] = system: Malme-3M
[49] = system: KM12
[50] = system: UO-31
[51] = system: SK-MEL-2
[52] = system: U-251
[53] = system: T47D
[54] = system: COLO 205
[55] = system: PC-3
[56] = system: HL-60
[57] = system: OVCAR-3
[58] = system: CCRF-CEM
[59] = system: DU-145

Measured: GI50

O=C1/C(=C/c2cccc([N+](=O)[O-])c2)N=C(c2ccccc2)N1c1nc2ccc(Sc3ccccc3)cc2[nH]1
inactive: [1] 60 µM | [2] 71.4 µM | [3] 34.8 µM | [4] > 100 µM | [5] 36.1 µM | [6] 37.8 µM | [7] 39 µM | [8] 49.3 µM | [9] 84.7 µM | [10] 32.9 µM | [11] 60.1 µM | [12] 55.2 µM | [13] 41.6 µM | [14] 24.8 µM | [15] 62.8 µM | [16] 80 µM | [17] 14.9 µM | [18] 35.7 µM | [19] 38.9 µM | [20] 93.1 µM | [21] 30.9 µM | [22] 42 µM | [23] 35.5 µM | [24] 46.6 µM | [25] 34.4 µM | [27] 28.8 µM | [28] 29.3 µM | [29] 88.7 µM | [30] 33.3 µM | [31] 83 µM | [32] 45.2 µM | [33] 67.6 µM | [34] 31.5 µM | [35] 52.4 µM | [36] 45.1 µM | [37] 38.5 µM | [38] 71.4 µM | [39] > 100 µM | [40] 37.2 µM | [41] 74.3 µM | [42] 65.5 µM | [43] 57.4 µM | [44] 87.7 µM | [45] > 100 µM | [46] 25 µM | [47] 13.3 µM | [48] 63.1 µM | [49] 31.8 µM | [50] 3.45 µM | [51] 30.3 µM | [52] 37.3 µM | [53] 47.2 µM | [54] 31.8 µM | [55] 35.4 µM
35.6 µM: [26]

SCCSCCCSCCS
> 100 µM: [26]
inactive: [1] > 100 µM | [3] 4.97 µM | [5] > 100 µM | [6] 49.2 µM | [7] > 100 µM | [8] 14 µM | [9] > 100 µM | [10] 19.3 µM | [56] 9.31 µM | [57] 76.4 µM | [11] > 100 µM | [12] > 100 µM | [13] > 100 µM | [58] 10.5 µM | [14] 4.16 µM | [15] > 100 µM | [16] 71.9 µM | [17] > 100 µM | [18] 76.9 µM | [19] 74.6 µM | [20] 91.6 µM | [21] 92.7 µM | [22] 59.3 µM | [24] > 100 µM | [25] > 100 µM | [27] > 100 µM | [59] 56.4 µM | [28] > 100 µM | [29] 53.3 µM | [31] > 100 µM | [32] > 100 µM | [33] > 100 µM | [34] 70.8 µM | [35] 59.3 µM | [36] > 100 µM | [37] 47.5 µM | [39] > 100 µM | [40] > 100 µM | [43] > 100 µM | [46] 31.1 µM | [47] > 100 µM | [49] > 100 µM | [50] 15.7 µM | [52] > 100 µM | [53] 50.2 µM | [54] 86.9 µM | [55] 20 µM

O=C1O/C(=C\C=C\CO)C=C1/C=C/CO [LISSOCLINOLIDE]
12.3 µM: [26]
inactive: [1] 27.9 µM | [2] 19.1 µM | [3] 50.6 µM | [4] 36.5 µM | [5] 18.9 µM | [6] 16 µM | [7] 24.5 µM | [8] 45.5 µM | [9] 24.4 µM | [10] 10.3 µM | [56] 29.3 µM | [57] 24.2 µM | [11] 12.5 µM | [12] 36.4 µM | [13] 14 µM | [58] 22.9 µM | [14] 34.9 µM | [15] 15.3 µM | [16] 23.5 µM | [17] 21.3 µM | [18] 39 µM | [19] 20.2 µM | [20] 21.3 µM | [21] 31.2 µM | [24] 18.5 µM | [25] 61.2 µM | [27] 22.1 µM | [59] 21 µM | [28] 33.3 µM | [29] 20 µM | [30] 16.4 µM | [32] 23 µM | [34] 36.3 µM | [35] > 100 µM | [36] 19.2 µM | [37] 35.6 µM | [39] 20 µM | [40] 18.2 µM | [41] 19 µM | [42] 14.5 µM | [43] 24.1 µM | [45] 24.2 µM | [46] 32.1 µM | [47] 35.7 µM | [48] 13.8 µM | [49] 36.9 µM | [50] 16.5 µM | [51] 19.3 µM | [52] 40.8 µM | [53] 20.7 µM | [54] 2.23 µM | [55] 14.3 µM

OC(Cc1ccccc1)(Cc1ccccc1)c1ccccc1
20.5 µM: [26]
inactive: [1] 17 µM | [2] 19.8 µM | [3] 24.6 µM | [4] 18.4 µM | [5] 16.9 µM | [6] 16.3 µM | [7] 14.9 µM | [8] 16.9 µM | [9] 21.9 µM | [10] 14.7 µM | [56] 22 µM | [57] 18.2 µM | [11] 15.2 µM | [12] 19.5 µM | [13] 16.2 µM | [58] 20.7 µM | [14] 25.1 µM | [15] 12.3 µM | [16] 26.1 µM | [17] 15.2 µM | [18] 19.3 µM | [19] 17.7 µM | [20] 19 µM | [21] 26.8 µM | [22] 18.5 µM | [24] 18.8 µM | [27] 18 µM | [59] 17.7 µM | [28] 23 µM | [29] 18.7 µM | [30] 29.3 µM | [31] 19.7 µM | [32] 15.9 µM | [36] 19 µM | [37] 18.3 µM | [38] 16.9 µM | [39] 17.2 µM | [40] 22.2 µM | [41] 15.3 µM | [42] 23.2 µM | [44] 19.9 µM | [45] 18.4 µM | [46] 19.4 µM | [47] 17.5 µM | [48] 13.1 µM | [49] 18.3 µM | [50] 17.5 µM | [51] 15.3 µM | [52] 18.1 µM | [53] 33.7 µM | [55] 18.7 µM

COc1ccc(-c2oc3cc(OC)ccc3c(=O)c2O)cc1
3.63 µM: [26]
inactive: [2] > 100 µM | [3] 2.66 µM | [5] 5.19 µM | [6] 4.25 µM | [7] 5.13 µM | [8] 3.88 µM | [9] > 25.4 µM | [10] 3.18 µM | [11] 9.02 µM | [13] 4.15 µM | [14] 3.57 µM | [15] > 100 µM | [16] > 100 µM | [17] > 100 µM | [18] 4.79 µM | [19] > 25.5 µM | [20] 43.4 µM | [22] > 100 µM | [23] 1.54 µM | [27] > 100 µM | [30] > 23.1 µM | [31] 3.7 µM | [32] > 100 µM | [33] > 10 µM | [34] 3.43 µM | [37] 4.12 µM | [38] 3.42 µM | [41] 3.15 µM | [42] 2.53 µM | [44] > 100 µM | [46] 3.37 µM | [47] > 27.7 µM | [48] > 31.6 µM | [52] 3.31 µM | [53] 9.42 µM | [54] > 100 µM | [55] > 100 µM
active: [29] 0.668 µM
